From patent US8952024B2, “Herbicidal pyrimidone derivatives” (E I du Pont de Nemours and Company, priority 2009, dated 2015)

Key:
Assay in all cases: Test B pre-/postemergence plant response
Format in all cases: in vivo
[1] = tested on: Italian ryegrass (Lolium multiflorum)
Outline: (§1)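 Steps: sow seed in loam–sand soil and spray preemergence, or grow plants in peat-based medium to 1–4 leaves (2–18 cm) and spray postemergence; formulation is non-phytotoxic solvent plus surfactant; hold in greenhouse 13–15 days; score visually vs controls, 0 = no effect, 100 = complete control.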

[2] = tested on: Surinam grass (Brachiaria decumbens)
Outline: as §1

[3] = tested on: blackgrass (Alopecurus myosuroides)
Outline: as §1

[4] = tested on: corn (Zea mays)
Outline: as §1

[5] = tested on: downy bromegrass (Bromus tectorum)
Outline: as §1

[6] = tested on: goosegrass (Eleusine indica)
Outline: as §1

[7] = tested on: johnsongrass (Sorghum halepense)
Outline: as §1

[8] = tested on: kochia (Kochia scoparia)
Outline: as §1

[9] = tested on: lambsquarters (Chenopodium album)
Outline: as §1

[10] = tested on: large crabgrass (Digitaria sanguinalis)
Outline: as §1

[11] = tested on: pigweed (Amaranthus retroflexus)
Outline: as §1

[12] = tested on: ragweed (common ragweed, Ambrosia elatior)
Outline: as §1

[13] = tested on: soybean (Glycine max)
Outline: as §1

[14] = tested on: velvetleaf (Abutilon theophrasti)
Outline: as §1

[15] = tested on: wheat (Triticum aestivum)
Outline: as §1

[16] = tested on: wild oat (Avena fatua)
Outline: as §1

[17] = tested on: woolly cupgrass (Eriochloa villosa)
Outline: as §1

[18] = tested on: yellow nutsedge (Cyperus esculentus)
Outline: as §1

[19] = 31 g ai/ha, postemergence, scale 0 to 100, 0 is no effect, 100 is complete control
[20] = 250 g ai/ha, Preemergence, 0 to 100 scale
[21] = Postemergence, 62 g ai/ha, scale 0 (no effect) to 100 (complete control), 13 to 15 days
[22] = Postemergence, 125 g ai/ha, visual rating after 13 to 15 days, scale 0 (no effect) to 100 (complete control)
[23] = Postemergence, 250 g ai/ha, scale 0 to 100 (0 no effect, 100 complete control)
[24] = Preemergence, 31 g ai/ha, scale 0 to 100 (0 no effect, 100 complete control)
[25] = Preemergence, 125 g ai/ha, 0 to 100 scale
[26] = Preemergence, 62 g ai/ha, scale 0 to 100, 0 no effect, 100 complete control

Structure (SMILES): Cc1ccc(F)c(-n2c(-c3ccccc3)ncc(C(=O)C3=C(O)CCCC3=O)c2=O)c1 [Compound 51]
- Plant response rating, Ryegrass, Italian [1, 19]: 0
- Plant response rating, Ryegrass, Italian [1, 20]: 5
- Plant response rating, Ryegrass, Italian [1, 21]: 0
- Plant response rating, Ryegrass, Italian [1, 22]: 10
- Plant response rating, Ryegrass, Italian [1, 23]: 30
- Plant response rating, Ryegrass, Italian [1, 24]: 0
- Ryegrass, Italian plant response rating [1, 25]: 0
- Plant response rating, Surinam Grass [2, 19]: 80
- Plant response rating, Surinam Grass [2, 20]: 100
- Plant response rating, Surinam Grass [2, 21]: 85
- Plant response rating, Surinam Grass [2, 22]: 90
- Plant response rating, Surinam Grass [2, 23]: 90
- Plant response rating, Surinam Grass [2, 24]: 95
- Surinam Grass plant response rating [2, 25]: 98
- Plant response rating, Blackgrass [3, 19]: 0
- Plant response rating, Blackgrass [3, 20]: 20
- Plant response rating, Blackgrass [3, 21]: 30
- Plant response rating, Blackgrass [3, 22]: 50
- Plant response rating, Blackgrass [3, 23]: 55
- Plant response rating, Blackgrass [3, 24]: 0
- Plant response rating, Blackgrass [3, 26]: 0
- Blackgrass plant response rating [3, 25]: 10
- Plant response rating, Corn [4, 19]: 75
- Plant response rating, Corn [4, 20]: 0
- Plant response rating, Corn [4, 21]: 80
- Plant response rating, Corn [4, 22]: 80
- Plant response rating, Corn [4, 23]: 85
- Plant response rating, Corn [4, 24]: 0
- Plant response rating, Corn [4, 26]: 0
- Corn plant response rating [4, 25]: 0
- Plant response rating, Bromegrass, Downy [5, 19]: 50
- Plant response rating, Bromegrass, Downy [5, 20]: 40
- Plant response rating, Bromegrass, Downy [5, 21]: 50
- Plant response rating, Bromegrass, Downy [5, 22]: 55
- Plant response rating, Bromegrass, Downy [5, 23]: 60
- Plant response rating, Bromegrass, Downy [5, 24]: 0
- Plant response rating, Bromegrass, Downy [5, 26]: 0
- Bromegrass, Downy plant response rating [5, 25]: 5
- Plant response rating, Goosegrass [6, 19]: 75
- Plant response rating, Goosegrass [6, 20]: 100
- Plant response rating, Goosegrass [6, 21]: 80
- Plant response rating, Goosegrass [6, 22]: 85
- Plant response rating, Goosegrass [6, 23]: 85
- Plant response rating, Goosegrass [6, 24]: 98
- Goosegrass plant response rating [6, 25]: 100
- Plant response rating, Johnsongrass [7, 19]: 75
- Plant response rating, Johnsongrass [7, 20]: 80
- Plant response rating, Johnsongrass [7, 21]: 75
- Plant response rating, Johnsongrass [7, 22]: 85
- Plant response rating, Johnsongrass [7, 23]: 98
- Plant response rating, Johnsongrass [7, 24]: 0
- Plant response rating, Johnsongrass [7, 26]: 5
- Johnsongrass plant response rating [7, 25]: 75
- Plant response rating, Kochia [8, 19]: 20
- Plant response rating, Kochia [8, 21]: 20
- Plant response rating, Kochia [8, 22]: 25
- Plant response rating, Kochia [8, 23]: 35
- Plant response rating, Lambsquarters [9, 19]: 75
- Plant response rating, Lambsquarters [9, 20]: 98
- Plant response rating, Lambsquarters [9, 21]: 90
- Plant response rating, Lambsquarters [9, 22]: 95
- Plant response rating, Lambsquarters [9, 23]: 98
- Plant response rating, Lambsquarters [9, 24]: 95
- Plant response rating, Lambsquarters [9, 26]: 98
- Lambsquarters plant response rating [9, 25]: 98
- Plant response rating, Crabgrass, Large [10, 19]: 80
- Plant response rating, Crabgrass, Large [10, 20]: 100
- Plant response rating, Crabgrass, Large [10, 21]: 85
- Plant response rating, Crabgrass, Large [10, 22]: 85
- Plant response rating, Crabgrass, Large [10, 23]: 90
- Plant response rating, Crabgrass, Large [10, 24]: 75
- Plant response rating, Crabgrass, Large [10, 26]: 98
- Crabgrass, Large plant response rating [10, 25]: 100
- Plant response rating, Pigweed [11, 19]: 85
- Plant response rating, Pigweed [11, 20]: 100
- Plant response rating, Pigweed [11, 21]: 95
- Plant response rating, Pigweed [11, 22]: 98
- Plant response rating, Pigweed [11, 23]: 100
- Plant response rating, Pigweed [11, 24]: 100
- Pigweed plant response rating [11, 25]: 100
- Plant response rating, Ragweed [12, 19]: 80
- Plant response rating, Ragweed [12, 20]: 90
- Plant response rating, Ragweed [12, 21]: 80
- Plant response rating, Ragweed [12, 22]: 90
- Plant response rating, Ragweed [12, 23]: 95
- Plant response rating, Ragweed [12, 24]: 65
- Ragweed plant response rating [12, 25]: 80
- Plant response rating, Soybean [13, 19]: 85
- Plant response rating, Soybean [13, 20]: 85
- Plant response rating, Soybean [13, 21]: 90
- Plant response rating, Soybean [13, 22]: 95
- Plant response rating, Soybean [13, 23]: 95
- Plant response rating, Soybean [13, 24]: 0
- Soybean plant response rating [13, 25]: 80
- Plant response rating, Velvetleaf [14, 19]: 80
- Plant response rating, Velvetleaf [14, 20]: 100
- Plant response rating, Velvetleaf [14, 21]: 85
- Plant response rating, Velvetleaf [14, 22]: 90
- Plant response rating, Velvetleaf [14, 23]: 95
- Plant response rating, Velvetleaf [14, 24]: 75
- Velvetleaf plant response rating [14, 25]: 98
- Plant response rating, Wheat [15, 19]: 5
- Plant response rating, Wheat [15, 20]: 10
- Plant response rating, Wheat [15, 21]: 10
- Plant response rating, Wheat [15, 22]: 10
- Plant response rating, Wheat [15, 23]: 30
- Plant response rating, Wheat [15, 24]: 0
- Wheat plant response rating [15, 25]: 0
- Plant response rating, Oat, Wild [16, 19]: 60
- Plant response rating, Oat, Wild [16, 20]: 0
- Plant response rating, Oat, Wild [16, 21]: 60
- Plant response rating, Oat, Wild [16, 22]: 60
- Plant response rating, Oat, Wild [16, 23]: 90
- Plant response rating, Oat, Wild [16, 24]: 0
- Oat, Wild plant response rating [16, 25]: 0
- Plant response rating, Cupgrass, Woolly [17, 19]: 75
- Plant response rating, Cupgrass, Woolly [17, 20]: 85
- Plant response rating, Cupgrass, Woolly [17, 21]: 75
- Plant response rating, Cupgrass, Woolly [17, 22]: 80
- Plant response rating, Cupgrass, Woolly [17, 23]: 90
- Plant response rating, Cupgrass, Woolly [17, 24]: 10
- Plant response rating, Cupgrass, Woolly [17, 26]: 35
- Cupgrass, Woolly plant response rating [17, 25]: 75
- Plant response rating, Nutsedge, Yellow [18, 19]: 60
- Plant response rating, Nutsedge, Yellow [18, 20]: 90
- Plant response rating, Nutsedge, Yellow [18, 21]: 65
- Plant response rating, Nutsedge, Yellow [18, 22]: 75
- Plant response rating, Nutsedge, Yellow [18, 23]: 80
- Plant response rating, Nutsedge, Yellow [18, 24]: 55
- Nutsedge, Yellow plant response rating [18, 25]: 85
